Experiments:
[1] = tested on: Therminator IX DNA polymerase; test: Single base extension reaction, checked by MALDI-TOF MS; assay type: biochemical; design: efficiency of primer strand extension: concentration or dose not given beside the values; conditions: for efficiency of primer strand extension: no primer peak is visible
Experimental: A single base DNA extension reaction (SBE) was performed with 3′-O-SS (DTM)-dTTP-PEG4-Azo-Cy5, using a primer (5′-[…]-3′ [SEQ ID 1]) and a synthetic DNA template (5′-[…]-3′ [SEQ ID 2]) based on a portion of exon 8 of the human p53 gene as follows. The bold letters in the template represent the extension position for the primers. 2 μL of 10× concentrated buffer, 1 μL of primer, E8TT (MW: 5163, 100 μM), 3 μL of Exon 8 template (20 μM), 1 μL of nucleotide (3′-O-t-butyl-SS-dTTP-PEG4-Azo-Cy5, 432 μM), 1 μL of Therminator IX DNA Polymerase, T9 (10 U/λ) and 12 μL of dH2O were combined in a total volume of 20 μL. The reaction consisted of 38 cycles at 65° C. for 30 seconds and 45° C. for 30 seconds. Single base extension was confirmed by MALDI-TOF MS as indicated by the major peak at 6791.8 Da (calc'd, 6782.4 Da) in the spectrum.
Synthesized 3′-O-t-butyl-SS-dATP-PEG4-Azo-Biotin was used to perform a single-base extension reaction. The primer E8AA-6084 (5′-[…]-3′ at 6084 Da), exon 8 template (see sequence above) and Therminator IX DNA polymerase (T9) were added along with the modified nucleotides. In the 3′-O-t-butyl-SS-dATP-PEG4-Azo-Biotin (A7) incorporation reaction, the primer was extended to 7327.4 Da (expected, 7326.3 Da). No primer peak was detected using MALDI TOF MS after 38 cycles of reaction.
Extension reactions consisted of 3 μl template (60 μM), 1 μl primer (100 μM), 2 μl of one of the above ddNTP analogues (100 μM), 2 μl 10× Thermo Pol Buffer, 1 μl Therminator IX DNA polymerase (10 unit/μl) and 11 μl water. Extension was performed in a thermal cycler and consisted of 1 min denaturation at 65° C., followed by 38 cycles of 30 sec at 65° C., 30 sec at 45° C. and 30 sec at 65° C., with a final 3 min extension at 72° C., and storage at 4° C. Desalting was carried out using Oligo Clean & Concentrator (Zymo Research) according to the manufacturer's instructions prior to checking results of polymerase reaction by MALDI-TOF-MS.

[2] = Sodium dithionite cleavage of azo linker on single base extended primer (MALDI-TOF MS); assay type: physicochemical
Experimental: The azo cleavage reaction was performed on single base extended primer (E8TT+3′-O-t-butyl-SS-dTMP-PEG4-Azo-Cy5, 6782.4 Da). A 1M stock solution of Na2S2O4 was prepared in 1×PBS buffer (pH 7.4). 1.25 μL Na2S2O4 solution was added to the extended primer solution (20 μL, 32 μM) along with 28.75 μL of 1×PBS buffer. […] Afterwards, reaction mixtures were purified with a ZipTip and concentrated using a Speed Vac. The size of the cleaved extended primer was characterized by MALDI-TOF MS as 6009.44 Da (calc'd: 6008.9 Da).
Single base extended primers (6084ExAA+3′-O-t-butyl-SS-dAMP-PEG4-Azo-Biotin, 7327.4 Da) was treated with 25 mM sodium dithionite in 1×PBS buffer. […] The azo cleaved product reflects a molecular weight of 6951.1 Da which agrees with the expected value of 6952.3 Da. […]

[3] = THP cleavage of SS linker / 3′ blocking group on extended primer (MALDI-TOF MS); assay type: physicochemical
Experimental: Tris(hydroxypropyl)phosphine (THP) (1 μL, 1 mM) was added to the azo cleaved extended primer (9 μL, 15 μM) (E8TT+3′-O-t-butyl-SS-dTMP-PEG4-aniline, 6009.44 Da). […] After the spin column-based nucleic acid purification (ZymoPURE Oligo Clean & Concentrator), the product was confirmed by MALDI-TOF MS: 5881.4 Da (calc'd: 5874.9 Da). […]

[4] = biological target: Thermo Sequenase (Thermus aquaticus, UniProt P19821, F272M/F667Y); conditions: read-out: concentration that produces the half maximum fluorescent intensity; 0.3 μM single fluorescein labeled self-primed template, 10 pH dCTP, ddCTP 0 to 10 μM
Experimental: A. Varying concentrations of ddCTP (0 to 10 μM) were added to solutions containing Thermo Sequenase, 0.3 μM single fluorescein labeled self-primed template and 10 pH dCTP. […] B. The same experiments performed with the tagged ddCTP (0 to 5 μM) shown in FIG. 79 in the presence of the same template and 5 μM dCTP.
Extension reactions were prepared with the primer, Thermo Sequenase, dCTP and various dilutions of ddCTP or tagged ddCTP. First, a series of SBE reactions were carried out with final ddCTP concentrations ranging from 0 to 10 μM at a concentration of dCTP of 10 μM and 0.3 pH of labeled primer. Under these conditions, the primer is extended by the incorporation of dCTP until it encounters ddCTP incorporation. […] Fluorescence intensity was measured on a SpectraMax3 Microplate Reader (Molecular Devices, LLC).

[5] = Compatibility test: stability of SS linker on sodium dithionite treatment (MALDI-TOF MS); assay type: physicochemical; conditions: 25 mM Na2S2O4 in PBS pH 7.4, 30 min at 37° C.
Experimental: Disclosed herein are the results of a compatibility test was performed using 3′-O-SS-dATP-SS-Rox (cal: MW1344.36 Da, observed 1345.61) as model compound. 2 μl of 0.1 mM 3′-O-SS-dATP-SS-Rox was treated with 100 μL of freshly made 25 mM Na2S2O4 (in PBS buffer [pH 7.4]) and the mixture was kept shaking for 30 min at 37° C. Then desalination was carried out with a ZipTip, and the product was subjected to MALDI TOF MS measurement. […] The result proves that the disulfide linker is stable at much higher concentration of sodium dithionite and at longer reaction time than necessary to cleave the Azo linker.
An additional compatibility test was conducted on 3′-SS-dC extended ssDNA. The single base extension experiment was carried out by adding 20 pmol Exon 8 template, 60 pmol primer (M.W. 5144), 2 mM MnCl2 and 2 U Therminator 9 polymerase in 20 μl 1×Pol buffer in each PCR reaction tube which were subject to PCR thermocycles (65° C. for 30″ 45° C. for 30″, 38 cycles). After completion of the incorporation, NaS2O4 solution was added to the reaction tube to a final concentration of 20 mM and incubated at room temperature for 40 min. Then the reaction mixture was treated with a Clean & Concentrator column to purify ssDNA. The resulting oligonucleotide was subject to MALDI-TOF MS measurement. […]

[6] = 25 mM sodium dithionite at 45° C. for 1 minute

Chain of Thermo Sequenase (P19821 272-832 F272M/F667Y): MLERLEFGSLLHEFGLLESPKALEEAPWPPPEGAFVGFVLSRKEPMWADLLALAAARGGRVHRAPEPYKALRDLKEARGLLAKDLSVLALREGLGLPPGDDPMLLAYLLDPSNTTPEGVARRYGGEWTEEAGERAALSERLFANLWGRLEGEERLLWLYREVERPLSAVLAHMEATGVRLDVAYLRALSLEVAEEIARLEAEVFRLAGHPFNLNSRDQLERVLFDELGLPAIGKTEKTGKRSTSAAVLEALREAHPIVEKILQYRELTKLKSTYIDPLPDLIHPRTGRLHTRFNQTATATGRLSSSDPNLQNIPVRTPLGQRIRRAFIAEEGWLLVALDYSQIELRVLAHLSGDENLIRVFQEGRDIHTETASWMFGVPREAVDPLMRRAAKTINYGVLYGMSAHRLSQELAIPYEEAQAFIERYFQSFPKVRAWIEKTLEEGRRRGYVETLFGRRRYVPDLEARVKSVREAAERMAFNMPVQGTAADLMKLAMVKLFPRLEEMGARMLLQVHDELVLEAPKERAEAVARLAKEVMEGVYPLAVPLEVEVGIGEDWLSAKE

ddGTP-7-SS-Cy5
efficiency of primer strand extension [1]: ~100%

3′-O-t-Butyl-SS(DTM)-dTTP-PEG4-Azo-Cy5 [3′-O-t-butyl-SS-dTTP-PEG4-Azo-Cy5]
incorporation rate ([1]; 38 cycles at 65° C. for 30 seconds and 45° C. for 30 seconds, no primer peak observed): 100% | cleavage of azo linker on extended primer ([2]; 25 mM sodium dithionite at 37° C. for 20 minutes): complete cleavage | removal of 3′ blocking group ([3]; 1 mM THP for 5 minutes at 65° C.): removed the blocking group with high efficiency

Nc1ccn([C@H]2CC[C@@H](COP(=O)(O)OP(=O)(O)OP(=O)(O)O)O2)c(=O)n1 [ddCTP]
IC50 [4]: ~500 nM

3′-O-SS-dATP-SS-Rox
integrity in the presence of Na2S2O4 [5]: no cleavage or degradation was observed

ddTTP-5-Azo-Cy5
efficiency of primer strand extension [1]: ~100% | cleavage of azo linker on extended primer [2, 6]: complete cleavage

ddCTP-5-SS-Biotin
efficiency of primer strand extension [1]: ~100% | cleavage of SS linker on extended primer ([3]; THP): complete cleavage

3′-O-t-Butyl-SS(DTM)-dATP-PEG4-Azo-Biotin [3′-O-t-butyl-SS-dATP-PEG4-Azo-Biotin]
efficiency of primer strand extension [1]: ~100% | cleavage of azo linker on extended primer ([2]; 25 mM sodium dithionite in 1×PBS, 37° C. for 10 min): can be cleaved efficiently

ddATP-7-Azo-Biotin
efficiency of primer strand extension [1]: ~100% | cleavage of azo linker on extended primer [2, 6]: complete cleavage

From US12188086B2, “Nucleotide analogues and use thereof for nucleic acid sequencing and analysis preliminary class” (The Trustees of Columbia University in the City of New York, priority 2018, dated 2025)
